Square brackets hold non-standard residues; d marks the D form. Peptide text beside a SMILES is read from it. * marks the point of attachment. 1Nal = N[C@@H](Cc1cccc2ccccc12)C(=O)O; Npys = O=[N+]([O-])c1cccnc1S*; Leu(ol) = CC(C)C[C@H](N)CO; Cbz = O=C(OCc1ccccc1)*; Mpa = O=C(O)CCS
The compounds below were run against T1, human renin (Homo sapiens, UniProt P00797) (assay: Inhibition of renin activity (human renin with sheep angiotensinogen, assay of angiotensin I)). Settings: test compound 5 × 10^-5 mole/liter, phosphate buffer pH 7.3, 10 minutes at 37° C., mean of 3 or 4 experiments.
T1 sequence (P00797 67-406): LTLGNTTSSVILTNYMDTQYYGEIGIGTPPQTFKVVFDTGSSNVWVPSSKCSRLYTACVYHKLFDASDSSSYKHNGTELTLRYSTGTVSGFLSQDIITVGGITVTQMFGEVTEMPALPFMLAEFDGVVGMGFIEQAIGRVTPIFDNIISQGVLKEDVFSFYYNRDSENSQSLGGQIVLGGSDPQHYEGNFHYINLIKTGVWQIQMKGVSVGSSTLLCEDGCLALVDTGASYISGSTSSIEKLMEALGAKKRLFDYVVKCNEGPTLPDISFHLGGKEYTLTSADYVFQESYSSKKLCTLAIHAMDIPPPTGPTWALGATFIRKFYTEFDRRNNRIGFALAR
Assay type: biochemical
Procedure: The ability of various compounds of the invention to inhibit the activity of renin was determined according to the following method.
Specifically, each test compound was dissolved in 60% v/v aqueous ethanol. Human renin activity in the presence and absence of each compound was measured using sheep angiotensinogen. The total volume of 1 ml of assay mixture contained 0.1 mole/liter phosphate buffer (pH 7.3), human renin (equivalent to 0.5 ng angiotensin I per ml per minute), sheep angiotensinogen (equivalent to 200 ng angiotensin I), the indicated concentration of the test compound, 6% ethanol and angiotensinase inhibitors (10 mmole/liter sodium ethylenediaminetetraacetate and 3.4 mmole/liter 8-hydroxyquinoline). The mixture was allowed to react for 10 minutes at 37° C., and then the reaction was stopped by placing the reaction tube in a boiling water bath for 5 minutes. The mixture was then centrifuged and the supernatant (0.05-0.1 ml) was used to assay remaining angiotensin I.
An identical experiment was carried out, as a control, except that the test compound was omitted. From the values obtained were calculated the % inhibition of renin activity achieved by each test compound. The results are shown in the following Table, in which the compounds of the invention are identified by the numbers assigned to them in the foregoing list. The values given are the mean of 3 or 4 experiments.

| SMILES | % Inhibition [%] |
| --- | --- |
| CC(C)C[C@@H](CO)NC(=O)[C@H](Cc1c[nH]cn1)NC(=O)[C@H](Cc1ccccc1)NC(=O)CCSSc1ncccc1[N+](=O)[O-] [Compound 11, N-[3-(3-nitro-2-pyridyldithio)propionyl]-L-phenylalanyl-L-histidyl-L-leucinol] ([Mpa](Npys)FH[Leu(ol)]) | 70 |
| CC(C)C[C@@H](C=O)NC(=O)[C@H](Cc1c[nH]cn1)NC(=O)[C@H](Cc1ccccc1)NC(=O)CCSSc1ncccc1[N+](=O)[O-] [Compound 2, N-[3-(3-nitro-2-pyridyldithio)propionyl]-L-phenylalanyl-L-histidyl-L-leucinal] ([Mpa](Npys)FHL-aldehyde) | 70 |
| CC(C)C[C@@H](CO)NC(=O)[C@H](Cc1c[nH]cn1)NC(=O)[C@H](Cc1ccccc1)NC(=O)OCc1ccccc1 [Compound 10, N-benzyloxycarbonyl-L-phenylalanyl-L-histidyl-L-leucinol] (Cbz-Phe-His-[Leu(ol)]) | 58 |
| CC(C)C[C@@H](CO)NC(=O)[C@H](Cc1c[nH]cn1)NC(=O)[C@H](Cc1cccc2ccccc12)NC(=O)OCc1ccccc1 [Compound 14, N-benzyloxycarbonyl-3-(1-naphthyl)-L-alanyl-L-histidyl-L-leucinol] (Cbz-[1Nal]-His-[Leu(ol)]) | 71 |
| CC(C)C[C@@H](C=O)NC(=O)[C@H](Cc1c[nH]cn1)NC(=O)[C@H](Cc1cccc2ccccc12)NC(=O)OCc1ccccc1 [Compound 3, N-benzyloxycarbonyl-3-(1-naphthyl)-L-alanyl-L-histidyl-L-leucinal] (Cbz-[1Nal]-His-Leu-aldehyde) | 54 |
| CC(C)C[C@@H](C=O)NC(=O)[C@H](Cc1c[nH]cn1)NC(=O)[C@H](Cc1ccccc1)NC(=O)CCCc1ccccc1 [Compound 1, N-(4-phenylbutyryl)-L-phenylalanyl-L-histidyl-L-leucinal] | 53 |

— patent US4548926A, “Hypotensive peptides and their use” (Sankyo Company Limited, priority 1983, dated 1985)
